According to publication PMC9609429 (Pharmaceuticals, 2022):

How the values were obtained:
normotensive rats [1] = assay: Influence on blood pressure in normotensive rats; assay type: in vivo, rat
Method: Normotensive rats were anesthetized with thiopental (75 mg/kg ip). The right carotid artery was cannulated with a polyethylene tube filled with heparin solution to allow pressure measurements, using a Datamax apparatus (Columbus Instruments, Columbus, OH, USA). The tested compound was administered intraperitoneally after 15 min of stabilization period and its effect on blood pressure was measured.

normotensive rats [2] = assay: Effect on a normal electrocardiogram in rats; assay type: in vivo; parameters: Rate: unit not given here; settings: rat; for PR / QRS: in ms (unit assumed)
Method: To verify the influence of the tested compound on the normal electrocardiogram (ECG), the experiment was performed. Aspel ASCARD apparatus (standard II lead, with tape speed 50 mm/s and voltage calibration 1 mV = 1 cm) was used for ECG measurements. Normotensive rats were anesthetized with thiopental (75 mg/kg ip). The ECG was recorded prior and 5, 10, 15, 20, 30, 40, 50, 60, and 80 min after intraperitoneal administration of the tested compound. The influence on PQ, QTc interval, QRS complex, and heart rate was evaluated. Bazzett’s formula, QTc = QT/√RR, was used to calculate QTc.

mice = tested on: mice; parameters: method as in PMID 34451841; settings: previous studies; cited from earlier work
5-HT1A receptors = tested on: 5-HT1A receptors; parameters: method as in PMID 34451841; settings: previous studies; cited from earlier work
α1-adrenoceptor = α1-adrenoceptor radioligand binding assay ([3H]-prazosin, rat cerebral cortex); settings: rat cortex tissue
Method: The α1-, α2-, and β1-adrenoceptor radioligand binding assay was carried out on the rat cerebral cortex. [^3H]-prazosin (19.5 Ci/mmol, α1-adrenoceptor), [^3H]-clonidine (70.5 Ci/mmol, α2-adrenoceptor), and [^3H]-CGP-12177 (48 Ci/mmol, β1-adrenergic receptor) were used as specific ligands. The brains were homogenized using ULTRA-TURRAX homogenizer in 10 mL of an ice-cold 50 mM Tris–HCl buffer (pH 7.6). Homogenates were centrifuged at 20,000× g for 20 min (0–4 °C). Next, the cell pellet was resuspended in the Tris–HCl buffer and centrifuged again. Radioligand binding assays were performed in plates (MultiScreen/Millipore). The final incubation mixture (volume 300 μL) consisted of 240 μL of the tissue suspension, 30 μL of radioligand solution, and 30 μL of the buffer containing 7–8 concentrations of the tested compound. […] The incubation was terminated by rapid filtration through Whatman GF/C filters using a vacuum manifold (Millipore). The filters were then washed twice with the assay buffer and placed in scintillation vials with a liquid scintillation cocktail. Radioactivity was measured in a WALLAC 1409 DSA liquid scintillation counter (Perkin Elmer, Waltham, MA, USA). All the assays were made in duplicates and the inhibitory constants (Ki) were estimated.

[3] = 1.25 mg/kg ip, from 5 min after injection

In the case of `CCC(CN1CCN(c2ccccc2OC)CC1)NCCCOc1c(C)cccc1C.Cl.Cl` (stereo not shown) [HBK-10, N-(3-(2,6-dimethylphenoxy)propyl)-1-(4-(2-methoxyphenyl)piperazin-1-yl)butan-2-amine dihydrochloride], the “effect on diastolic blood pressure” value (normotensive rats [1]; 0.625 mg/kg ip) is reported as “did not affect”, the “effect on systolic blood pressure” value (normotensive rats [1]; 0.625 mg/kg ip) is reported as “did not affect” and the “reduction of diastolic blood pressure” value (normotensive rats [1]; [3]) is reported as 12.5–18.3%. For the same molecule, the “reduction of systolic blood pressure” value (normotensive rats [1]; [3]) was 11.2–18.3%, the “dose reducing blood pressure relative to median effective dose in adrenaline-induced model” value (normotensive rats [1]; single ip administration) was 10 fold and the “dose influencing normal ECG relative to median effective dose in adrenaline-induced arrhythmia model” value (normotensive rats [2]) was 160 fold. The “effect on PR” value (normotensive rats [2]; 10 mg/kg) was “no effect”, the “effect on QRS” value (normotensive rats [2]; 10 mg/kg) was “no effect” and the “effect on QTc” value (normotensive rats [2]; 10 mg/kg) was “no effect”. The “effect on heart rate” value (normotensive rats [2]; 10 mg/kg) was “no effect”, the QTc (normotensive rats [2]; 10 mg/kg ip, 0 min) was 215.3 ± 19.3 and the Rate (normotensive rats [2]; 10 mg/kg ip, 0 min) was 357.1 ± 22.6. The PR (normotensive rats [2]; 10 mg/kg ip, 0 min) was 53.9 ± 2.8, the QRS (normotensive rats [2]; 10 mg/kg ip, 0 min) was 22.6 ± 1.8 and the QTc (normotensive rats [2]; 10 mg/kg ip, 5 min) was 213.2 ± 20.8. The Rate (normotensive rats [2]; 10 mg/kg ip, 5 min) was 347.3 ± 25.2, the PR (normotensive rats [2]; 10 mg/kg ip, 5 min) was 53.0 ± 3.3 and the QRS (normotensive rats [2]; 10 mg/kg ip, 5 min) was 21.5 ± 1.4. It also gave a QTc (normotensive rats [2]; 10 mg/kg ip, 10 min) of 214.4 ± 20.0, a Rate (normotensive rats [2]; 10 mg/kg ip, 10 min) of 347.9 ± 29.2 and a PR (normotensive rats [2]; 10 mg/kg ip, 10 min) of 55.8 ± 2.0. For the same molecule, the QRS (normotensive rats [2]; 10 mg/kg ip, 10 min) was 23.2 ± 3.6, the QTc (normotensive rats [2]; 10 mg/kg ip, 15 min) was 212.4 ± 12.3 and the Rate (normotensive rats [2]; 10 mg/kg ip, 15 min) was 345.0 ± 32.7. The PR (normotensive rats [2]; 10 mg/kg ip, 15 min) was 54.9 ± 2.4, the QRS (normotensive rats [2]; 10 mg/kg ip, 15 min) was 23.5 ± 2.6 and the QTc (normotensive rats [2]; 10 mg/kg ip, 20 min) was 216.7 ± 13.8. The Rate (normotensive rats [2]; 10 mg/kg ip, 20 min) was 343.4 ± 33.6, the PR (normotensive rats [2]; 10 mg/kg ip, 20 min) was 53.1 ± 4.4 and the QRS (normotensive rats [2]; 10 mg/kg ip, 20 min) was 23.6 ± 2.9. The QTc (normotensive rats [2]; 10 mg/kg ip, 30 min) was 213.7 ± 19.0, the Rate (normotensive rats [2]; 10 mg/kg ip, 30 min) was 338.5 ± 26.3 and the PR (normotensive rats [2]; 10 mg/kg ip, 30 min) was 52.2 ± 4.4. The QRS (normotensive rats [2]; 10 mg/kg ip, 30 min) was 22.9 ± 1.6, the QTc (normotensive rats [2]; 10 mg/kg ip, 40 min) was 221.4 ± 16.9 and the Rate (normotensive rats [2]; 10 mg/kg ip, 40 min) was 337.5 ± 25.0. For the same molecule, the PR (normotensive rats [2]; 10 mg/kg ip, 40 min) was 55.6 ± 2.6, the QRS (normotensive rats [2]; 10 mg/kg ip, 40 min) was 24.5 ± 1.8 and the QTc (normotensive rats [2]; 10 mg/kg ip, 50 min) was 218.8 ± 11.8. For the same molecule, the Rate (normotensive rats [2]; 10 mg/kg ip, 50 min) was 342.2 ± 25.8, the PR (normotensive rats [2]; 10 mg/kg ip, 50 min) was 53.6 ± 4.4 and the QRS (normotensive rats [2]; 10 mg/kg ip, 50 min) was 23.9 ± 2.5. The QTc (normotensive rats [2]; 10 mg/kg ip, 60 min) was 217.4 ± 22.0, the Rate (normotensive rats [2]; 10 mg/kg ip, 60 min) was 344.5 ± 28.9 and the PR (normotensive rats [2]; 10 mg/kg ip, 60 min) was 54.7 ± 3.1. The QRS (normotensive rats [2]; 10 mg/kg ip, 60 min) was 23.2 ± 1.9, the QTc (normotensive rats [2]; 10 mg/kg ip, 80 min) was 218.3 ± 25.5 and the Rate (normotensive rats [2]; 10 mg/kg ip, 80 min) was 350.7 ± 28.1. For the same molecule, the PR (normotensive rats [2]; 10 mg/kg ip, 80 min) was 54.9 ± 4.2, the QRS (normotensive rats [2]; 10 mg/kg ip, 80 min) was 22.0 ± 1.4 and the “effect on PR” value (normotensive rats [2]; 20 mg/kg) was “did not affect”. The “effect on QRS” value (normotensive rats [2]; 20 mg/kg) was “did not affect”, the QTc (normotensive rats [2]; 20 mg/kg ip, 0 min) was 198.4 ± 6.1 and the Rate (normotensive rats [2]; 20 mg/kg ip, 0 min) was 317.4 ± 26.0. The PR (normotensive rats [2]; 20 mg/kg ip, 0 min) was 53.1 ± 2.8, the QRS (normotensive rats [2]; 20 mg/kg ip, 0 min) was 21.8 ± 1.7 and the QTc (normotensive rats [2]; 20 mg/kg ip, 5 min) was 190.9 ± 8.4. For the same molecule, the Rate (normotensive rats [2]; 20 mg/kg ip, 5 min) was 304.2 ± 32.0, the PR (normotensive rats [2]; 20 mg/kg ip, 5 min) was 52.4 ± 3.4 and the QRS (normotensive rats [2]; 20 mg/kg ip, 5 min) was 20.9 ± 1.2. It also gave a QTc (normotensive rats [2]; 20 mg/kg ip, 10 min) of 187.8 ± 14.7, a Rate (normotensive rats [2]; 20 mg/kg ip, 10 min) of 278.4 ± 41.8 and a PR (normotensive rats [2]; 20 mg/kg ip, 10 min) of 55.3 ± 1.7. The QRS (normotensive rats [2]; 20 mg/kg ip, 10 min) was 22.7 ± 3.4, the QTc (normotensive rats [2]; 20 mg/kg ip, 15 min) was 179.4 ± 16.4 and the Rate (normotensive rats [2]; 20 mg/kg ip, 15 min) was 256.2 ± 52.1. For the same molecule, the PR (normotensive rats [2]; 20 mg/kg ip, 15 min) was 54.2 ± 2.1, the QRS (normotensive rats [2]; 20 mg/kg ip, 15 min) was 22.8 ± 2.2 and the QTc (normotensive rats [2]; 20 mg/kg ip, 20 min) was 178.9 ± 21.9. For the same molecule, the Rate (normotensive rats [2]; 20 mg/kg ip, 20 min) was 249.9 ± 53.5, the PR (normotensive rats [2]; 20 mg/kg ip, 20 min) was 52.1 ± 4.2 and the QRS (normotensive rats [2]; 20 mg/kg ip, 20 min) was 22.7 ± 2.5. For the same molecule, the QTc (normotensive rats [2]; 20 mg/kg ip, 30 min) was 178 ± 21.6 ms, the Rate (normotensive rats [2]; 20 mg/kg ip, 30 min) was 246.5 ± 55.6 and the PR (normotensive rats [2]; 20 mg/kg ip, 30 min) was 51.3 ± 4.4. The QRS (normotensive rats [2]; 20 mg/kg ip, 30 min) was 22.0 ± 1.5, the QTc (normotensive rats [2]; 20 mg/kg ip, 40 min) was 175.7 ± 20.5 and the Rate (normotensive rats [2]; 20 mg/kg ip, 40 min) was 242.1 ± 53.5. For the same molecule, the PR (normotensive rats [2]; 20 mg/kg ip, 40 min) was 54.6 ± 2.4, the QRS (normotensive rats [2]; 20 mg/kg ip, 40 min) was 23.6 ± 1.5 and the QTc (normotensive rats [2]; 20 mg/kg ip, 50 min) was 179.3 ± 20.7. It also gave a Rate (normotensive rats [2]; 20 mg/kg ip, 50 min) of 239.2 ± 55.4, a PR (normotensive rats [2]; 20 mg/kg ip, 50 min) of 52.5 ± 4.6 and a QRS (normotensive rats [2]; 20 mg/kg ip, 50 min) of 22.9 ± 2.3. The Rate (normotensive rats [2]; 20 mg/kg ip, 60 min) was 239.5 ± 56.6, the PR (normotensive rats [2]; 20 mg/kg ip, 60 min) was 53.7 ± 3.0 and the QRS (normotensive rats [2]; 20 mg/kg ip, 60 min) was 22.1 ± 1.7. It also gave a QTc (normotensive rats [2]; 20 mg/kg ip, 80 min) of 173.0 ± 6.6, a Rate (normotensive rats [2]; 20 mg/kg ip, 80 min) of 241.0 ± 64.1 and a PR (normotensive rats [2]; 20 mg/kg ip, 80 min) of 53.8 ± 4.1. For the same molecule, the QRS (normotensive rats [2]; 20 mg/kg ip, 80 min) was 21.0 ± 1.3, the “decrease of heart rate” value (normotensive rats [2]; 20 mg/kg, 10 min after administration) was 12.3% and the “decrease of heart rate” value (normotensive rats [2]; 20 mg/kg, 15 min after administration) was 19.3%. For the same molecule, the “decrease of QTc” value (normotensive rats [2]; 20 mg/kg, 15 min post injection) was 9.6%, the “decrease of heart rate” value (normotensive rats [2]; 20 mg/kg, 20 min after administration) was 21.3% and the “decrease of QTc” value (normotensive rats [2]; 20 mg/kg, 20 min post injection) was 9.8%. For the same molecule, the “decrease of heart rate” value (normotensive rats [2]; 20 mg/kg, 30 min after administration) was 22.3%, the “decrease of QTc” value (normotensive rats [2]; 20 mg/kg, 30 min post injection) was 10.5% and the “decrease of heart rate” value (normotensive rats [2]; 20 mg/kg, 40 min after administration) was 23.7%. The “decrease of QTc” value (normotensive rats [2]; 20 mg/kg, 40 min post injection) was 11.4%, the “decrease of heart rate” value (normotensive rats [2]; 20 mg/kg, 50 min after administration) was 24.6% and the “decrease of QTc” value (normotensive rats [2]; 20 mg/kg, 50 min post injection) was 9.6%. The “decrease of heart rate” value (normotensive rats [2]; 20 mg/kg, 60 min after administration) was 24.5%, the “decrease of QTc” value (normotensive rats [2]; 20 mg/kg, 60 min post injection) was 8.3% and the “decrease of heart rate” value (normotensive rats [2]; 20 mg/kg, 80 min after administration) was 24.1%. The “decrease of QTc” value (normotensive rats [2]; 20 mg/kg, 80 min post injection) was 12.8%, the antidepressant-like effect (mice) was “antidepressant-like effect” and the “properties at 5-HT1A receptors” value (5-HT1A receptors) was “antagonistic properties”. The “Adrenergic Receptors—pKi α1” value (α1-adrenoceptor) was 8.55.
